# Patent US4175081A, “5-Substituted thiadiazole ureas” (priority 1977, dated 1979)
# Assays:
# Experiment in all cases: Post-emergence herbicide test
# Barnyard grass (BG) = format: in vivo; conditions: Echinochloa crus-galli, 336 h, two weeks after treatment
# In short: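 Greenhouse pot-grown barnyard grass seedlings sprayed post-emergence at 8 lbs active compound per acre (some at 4 lbs/acre) in 38 gallons per acre, then sub-irrigated. Injury or control rated visually two weeks after treatment.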
# Corn (CN) = format: in vivo; conditions: Zea mays, 336 h, two weeks after treatment
# In short: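 Greenhouse seedlings grown in potting soil and sprayed post-emergence at 8 lbs compound/acre (formulations also made for 4 lbs/acre) in 38 gallons/acre spray volume. Watering by sub-irrigation only. Injury or control rated visually two weeks after treatment.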
# Amaranth pigweed (PW) = format: in vivo, Amaranthus retroflexus; conditions: 336 h, two weeks after treatment
# Description: Amaranth pigweed (PW)--Amaranthus retroflexus
# All crop and weed species were planted individually in 3' plastic pots containing potting soil. Four seeds each of corn, cotton, and snapbeans were seeded to a depth equal to the diameter of the seed. All other species were surface seeded and sprinkled with screened soil in an amount sufficient to cover the seed. Immediately after planting, all pots were watered by sub-irrigation in greenhouse trays. Pots for the pre-emergence phase were seeded one day before treatment.
# Planting dates for the post-emergence phase were varied so that all seedlings would reach the desired stage of development simultaneously. The proper stage of seedling development for treatment in the post-emergence phase is as follows:
# Pigweed and turnips: 1 or 2 true leaves above visible cotyledons.
# Compounds were tested at rates of application equivalent to 8 lbs. of actual compound per acre in a spray volume of 38 gallons per acre. Spray hood constants required to deliver the above volume are as follows:
# Formulations for spray applications were prepared in 50 ml volumes with the following three components:
# Formulations for the 4 lbs/acre rate were prepared by adjusting the amount of active ingredient accordingly.
# Spray applications were made in a hood containing a removable belt and fixed spray nozzle. For passage through the spray hood, one pot of each specie (pre-emergence phase) was placed on the rear half of the flat. Treatments were removed to the greenhouse after spraying. Watering during the observation period was done only by sub-irrigation.
# Two weeks after treatment, pre- and post-emergence injury or control was visually rated, and the results were as shown in the following tables. Pre-emergence data are provided in TABLE III and post-emergence data are provided in TABLE IV, for compounds having the formula illustrated in TABLE I. Correspondingly, pre-emergence and post-emergence data, respectively, are set forth in TABLES V AND VI, for compounds having the formula illustrated in TABLE II.
# Turnip (TP) = format: in vivo, Brassica sp.; conditions: Brassica rapa, post-emergence, 336 h, two weeks after treatment
# In short: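 A greenhouse post-emergence herbicide test on turnip. Seeds were sown on the surface of potting soil in 3' plastic pots, lightly covered with screened soil and watered from below. Planting was timed so seedlings had 1 or 2 true leaves above the cotyledons at spraying, done in a hood with a fixed nozzle. Control or injury was scored by eye after two weeks.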
# Bean (BN) = format: in vivo, Phaseolus vulgaris var. Black Valentine; conditions: Phaseolus vulgaris, post-emergence, 336 h, two weeks after treatment
# In short: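 Bean seedlings (Phaseolus vulgaris var. Black Valentine) were grown in potting soil in 3' pots until the primary leaves expanded. They were then sprayed under a hood with a removable belt and fixed nozzle, using 50 ml formulations. Afterward they were returned to the greenhouse and watered only by sub-irrigation. Percent control was judged visually two weeks after treatment.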
# Crabgrass (CG) = format: in vivo, Digitaria sanquinalis; conditions: Digitaria sanguinalis, post-emergence, 336 h, two weeks after treatment
# In short: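 Crabgrass (Digitaria sanquinalis) was surface seeded individually in 3' plastic pots of potting soil, covered with screened soil, and watered by sub-irrigation in greenhouse trays. Planting was staggered so seedlings reached the target stage together. Post-emergence sprays were applied in a hood with a removable belt and fixed nozzle, and control was visually rated two weeks after treatment.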
# Cotton (CT) = format: in vivo, Gossypium hirsutum var. DPL smooth leaf; conditions: Gossypium hirsutum, post-emergence, 336 h, two weeks after treatment
# In short: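 This greenhouse post-emergence test measured how well spray treatments controlled cotton. Seedlings of Gossypium hirsutum var. DPL smooth leaf, with expanded cotyledons and a first true leaf 1' in length, were sprayed with 50 ml formulations in a belt-fed spray hood. They were then returned to the greenhouse and watered only by sub-irrigation. Injury was scored visually as % control after two weeks.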
# Johnson grass (JG) = format: in vivo, Sorgum helepense; conditions: Sorghum halepense, 336 h, two weeks after treatment
# In short: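 Visual injury or control scores taken 2 weeks after a post-emergence spray of pot-grown plants. Application was 8 lbs/acre (or 4 lbs/acre) in 38 gal/acre. Plants were held in the greenhouse with sub-irrigation only.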
smiles,measurement,setting,value
CNC(=O)Nc1nnc(C(F)(F)Cl)s1 [Example 57],pest or weed control at 8966.8 g/ha,Barnyard grass (BG); 8 lb/acre,40%
same,pest or weed control at 8966.8 g/ha,Corn (CN); 8 lb/acre,40%
same,pest or weed control at 8966.8 g/ha,Amaranth pigweed (PW); 8 lb/acre,90%
same,pest or weed control at 8966.8 g/ha,Turnip (TP); 8 lb/acre,100%
same,pest or weed control at 8966.8 g/ha,Bean (BN); 8 lb/acre,100%
same,pest or weed control at 8966.8 g/ha,Crabgrass (CG); 8 lb/acre,60%
same,pest or weed control at 8966.8 g/ha,Cotton (CT); 8 lb/acre,90%
same,pest or weed control at 8966.8 g/ha,Johnson grass (JG); 8 lb/acre,40%
CNC(=O)Nc1nnc(SCCCCl)s1 [Example 61],pest or weed control at 2241.7 g/ha,Barnyard grass (BG); 2 lb/acre,40%
same,pest or weed control at 4483.4 g/ha,Barnyard grass (BG); 4 lb/acre,70%
same,pest or weed control,Corn (CN); 2 lb/acre,40%
same,pest or weed control at 4483.4 g/ha,Corn (CN); 4 lb/acre,30%
same,pest or weed control at 2241.7 g/ha,Amaranth pigweed (PW); 2 lb/acre,90%
same,pest or weed control at 4483.4 g/ha,Amaranth pigweed (PW); 4 lb/acre,90%
same,pest or weed control at 2241.7 g/ha,Turnip (TP); 2 lb/acre,100%
same,pest or weed control at 4483.4 g/ha,Turnip (TP); 4 lb/acre,80%
same,pest or weed control at 2241.7 g/ha,Bean (BN); 2 lb/acre,100%
same,pest or weed control at 4483.4 g/ha,Bean (BN); 4 lb/acre,100%
same,pest or weed control,Crabgrass (CG); 2 lb/acre,20%
same,pest or weed control at 4483.4 g/ha,Crabgrass (CG); 4 lb/acre,90%
same,pest or weed control at 2241.7 g/ha,Cotton (CT); 2 lb/acre,100%
same,pest or weed control at 4483.4 g/ha,Cotton (CT); 4 lb/acre,100%
same,pest or weed control,Johnson grass (JG); 2 lb/acre,20%
same,pest or weed control at 4483.4 g/ha,Johnson grass (JG); 4 lb/acre,60%
